Experimental data taken from patent US9724383B2, “Stabilized trimeric HIV-1 GP41 fusion inhibitor polypeptides comprising the N-terminal heptad repeat (NHR) and foldon (FD) trimerization motif” (New York Blood Center, Inc., priority 2009, dated 2017).
“Also recorded” adds a separate entry of the source. Like-named read-outs stand apart in the source and are kept apart here. Peptide text beside a SMILES is read from it.

Assays:
CHR-peptide C34 = CHR-peptide C34 (Human immunodeficiency virus type 1 group M subtype B, UniProt P04578); type: binding, HIV-1; settings: CD spectroscopy
Description: (§1) All the N-peptides were diluted in ddH2O (pH 7.0) and all the C-peptides or the mixture of the N- and C-peptides were diluted in 50 mM sodium phosphate and 150 mM NaCl (PBS, pH 7.2) to a final concentration of 10 μM. The individual peptides and their mixtures were incubated in a 37° C. water bath for 0.5 h before testing. […] The α-helicity was calculated from the CD signal by dividing the mean residue ellipticity at 222 nm by the value expected for 100% helix formation (i.e., 33,000° cm^2 dmol^−1) according to previous studies. Thermal denaturation of the samples was monitored at 222 nm by applying a temperature gradient from 20° C. to 98° C. with a 2-degree interval, an equilibration time of 1.5 min, and an averaging time of 60 s. The midpoint of the thermal unfolding transition (Tm) values was calculated using Jasco software utilities as described previously.

[1] = tested on: HIV-1IIIB (subtype B, X4)
Description: (§2) In brief, 1×10^4 MT-2 cells were infected with HIV-1IIIB in 200 μl RPMI 1640 medium containing 10% FBS in the presence or absence of testing compounds at graded concentrations overnight. Then the culture supernatants were removed and fresh media containing no testing compounds were added. On the fourth day post-infection, 100 μl of culture supernatants were collected from each well, mixed with equal volumes of 5% Triton X-100 and assayed for p24 antigen, which was quantitated by ELISA. Briefly, wells of polystyrene plates (Immulon 1B, Dynex Technology, Chantilly, Va.) were coated with HIV immunoglobulin (HIVIG), which was prepared from plasma of HIV-seropositive donors with high neutralizing titers against HIV-1IIIB, in 0.085 M carbonate-bicarbonate buffer (pH 9.6) at 4° C. overnight, followed by washes with washing buffer (0.01M PBS containing 0.05% Tween-20) and blocking with PBS containing 1% dry fat-free milk (Bio-Rad Inc., Hercules, Calif.). Virus lysates were added to the wells and incubated at 37° C. for 1 h. […] Reactions were terminated by addition of 1N H2SO4. Absorbance at 450 nm was recorded in an ELISA reader (Ultra 386, TECAN, Research Triangle Park, NC). Recombinant protein p24 purchased from US Biological (Swampscott, Mass.) was included for establishing standard dose response curves. […] The percentage of inhibition of p24 production was calculated as previously described.

[2] = CD spectroscopy of secondary structure (α-helicity) of the individual peptides; type: physicochemical; settings: CD at 222 nm, 10 μM, ddH2O pH 7.0; spectrum of free Fd subtracted
Description: as §1

[3] = tested on: HIV-1IIIB-mediated cell-cell fusion
Description: Briefly, H9/HIV-1IIIB cells were pre-labeled with a fluorescent dye, Calcein AM (Molecular Probes, Inc., Eugene, Oreg.), and incubated with a testing compound at a graded concentration at 37° C. for 30 min in a 96-well cell culture plate. Then the CD4^+ MT-2 cells were added to the H9/HIV-1IIIB cells at a ratio of 10:1, followed by incubation at 37° C. for 2 hrs. The fused and unfused Calcein-labeled HIV-1-infected cells were counted under an inverted fluorescence microscope (Zeiss, Germany) with an eyepiece micrometer disc. The percent inhibition of cell fusion by a compound and the EC50 and EC90 values were calculated using the software CalcuSyn.

[4] = tested on: HIV-1 Bal (subtype B, R5); type: cell-based
Description: The cells were harvested and lysed on the fourth day post-infection with 50p1 of lysing reagent. The luciferase activity was analyzed using a luciferase kit (Promega, Madison, Wis.) and a luminometer (Ultra 386) according to the manufacturer's instructions. The percent inhibition of luciferase activity was calculated.

[5] = tested on: HIV-1 93IN101 (subtype C, R5); type: cell-based
Description: For inhibition of infection by the primary HIV-1 isolate 93IN101 (subtype C, R5), the peripheral blood mononuclear cells (PBMCs) were isolated from the blood of healthy donors using a standard density gradient (Histopaque-1077, Sigma) centrifugation. After incubation at 37° C. for 2 h, the nonadherent cells were collected and resuspended at 5×10^5/ml in RPMI medium 1640 containing 10% FBS, 5 μg of phytohemagglutinin (PHA)/ml, and 100 U of interleukin-2/ml, followed by incubation at 37° C. for 3 days. The PHA-stimulated cells were infected with the primary HIV-1 isolate at a multiplicity of infection (MOI) of 0.01 in the absence or presence of N-Fd peptides at graded concentrations. The supernatants were collected on the 7th day post-infection and tested for p24 antigen by ELISA.

HIV-1NL4-3(36G) N42S = settings: T20-sensitive
Description: (§3) In brief, 1×10^4 MT-2 cells were infected with HIV-1IIIB in 200 μl RPMI 1640 medium containing 10% FBS in the presence or absence of testing compounds at graded concentrations overnight. Then the culture supernatants were removed and fresh media containing no testing compounds were added. On the fourth day post-infection, 100 μl of culture supernatants were collected from each well, mixed with equal volumes of 5% Triton X-100 and assayed for p24 antigen, which was quantitated by ELISA. Briefly, wells of polystyrene plates (Immulon 1B, Dynex Technology, Chantilly, Va.) were coated with HIV immunoglobulin (HIVIG), which was prepared from plasma of HIV-seropositive donors with high neutralizing titers against HIV-1IIIB, in 0.085 M carbonate-bicarbonate buffer (pH 9.6) at 4° C. overnight, followed by washes with washing buffer (0.01M PBS containing 0.05% Tween-20) and blocking with PBS containing 1% dry fat-free milk (Bio-Rad Inc., Hercules, Calif.). Virus lysates were added to the wells and incubated at 37° C. for 1 h. […] Reactions were terminated by addition of 1N H2SO4. Absorbance at 450 nm was recorded in an ELISA reader (Ultra 386, TECAN, Research Triangle Park, NC). Recombinant protein p24 purchased from US Biological (Swampscott, Mass.) was included for establishing standard dose response curves. Each sample was tested in triplicate. The percentage of inhibition of p24 production was calculated as previously described.
(§4) Mutations in the NHR region of HIV-1 virus NL4-3 cause genetic resistance to T20.

[6] = tested on: HIV-1NL4-3(36G) N42T/N43K; settings: T20-resistant
Description: as §3, §4

[7] = tested on: HIV-1NL4-3(36G) V38A/N42D; settings: T20-resistant
Description: as §3, §4

[8] = tested on: HIV-1NL4-3(36G) V38E/N42S; settings: T20-resistant
Description: as §3, §4

Proteinase K = target: T1, Proteinase K (Parengyodontium album, UniProt P06873); assay: Proteinase K digestion, residual peptide by direct ELISA; type: in vitro ADME; settings: 1 μU/ml Proteinase K in PBS, 37° C.
T1 construct: purchased Sigma
Excerpt: T20 was used as a control. […] Samples were collected at different times and centrifuged immediately.

HIV-1IIIB = assay: Proteinase K digestion, remaining antiviral activity against HIV-1IIIB infection; settings: 1 μU/ml Proteinase K in PBS, 37° C., 3 hrs
Description: as §2

[9] = SDS-PAGE analysis of trimer stability; type: physicochemical; settings: 2% SDS sample buffer, room temperature or boiled 5 min
Description: Purified N36Fd and N28Fd were analyzed by SDS-PAGE. […] The sample was boiled for 5 min or kept at room temperature (RT) before loading onto a 10-20% Tricine-Glycine gel (Invitrogen). The electrophoresis was conducted in SDS-PAGE running buffer with 125V constant voltage at 4° C. The gels were stained with SimplyBlue SafeStain (Invitrogen).

HIV-1-mediated fusion = settings: background statement; cited from earlier work

T1 sequence (P06873 106-384): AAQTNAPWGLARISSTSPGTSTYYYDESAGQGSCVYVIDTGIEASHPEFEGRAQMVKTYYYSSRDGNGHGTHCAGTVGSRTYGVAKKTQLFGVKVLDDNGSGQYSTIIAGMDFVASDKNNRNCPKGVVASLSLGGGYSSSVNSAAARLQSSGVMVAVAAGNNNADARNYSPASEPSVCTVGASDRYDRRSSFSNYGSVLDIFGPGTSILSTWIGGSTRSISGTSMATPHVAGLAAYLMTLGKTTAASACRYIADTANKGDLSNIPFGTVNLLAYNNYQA
Chain of CHR-peptide C34 (P04578 628-661): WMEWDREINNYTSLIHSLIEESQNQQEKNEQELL

Row | Compound | complex formation with C34 (CHR-peptide C34) | IC50 ([1]; 1IIIB (subtype B, X4)) [nM] | α-helicity of the N36 or N28 portion in N36Fd or N28Fd [2] [%] | fold more potent than the free N-peptide in inhibiting cell-cell fusion ([3]; N36Fd vs N36, N28Fd vs N28) [fold] | IC50 ([3]; read-out: IC50, inhibition of HIV-1-induced cell-cell fusion, H9/HIV-1IIIB + MT-2 cells, 2 hrs) [nM] | IC50 ([1]; read-out: IC50, inhibition of HIV-1IIIB replication (p24), MT-2 cells, day 4 post-infection) [nM] | IC50 ([4]; TZM-bl cells, luciferase, read-out: IC50 against infection by HIV-1 Bal) [nM] | IC50 ([5]; PHA-stimulated PBMCs, p24 on day 7, read-out: IC50 against infection by HIV-1 93IN101) [nM] | IC50 (HIV-1NL4-3(36G) N42S) [nM] | IC50 [6] [nM] | IC50 [7] [nM] | IC50 [8] [nM] | residual amount, % of original, detected by ELISA (Proteinase K; 3 hrs) [%] | remaining antiviral activity against HIV-1IIIB infection, % of original (HIV-1IIIB) | trimer stability in SDS-PAGE [9] | IC50 ([4]; Bal (subtype B, R5)) [nM] | IC50 ([5]; 93IN101 (subtype C, R5, 2 h)) [nM] | remaining at 3 h (Proteinase K; read-out: residual amount, % of original, detected by ELISA) [%] | inhibition of HIV-1-mediated fusion (HIV-1-mediated fusion)
1 | CC[C@H](C)[C@H](N)C(=O)N[C@@H](CCC(=O)O)C(=O)N[C@@H](C)C(=O)N[C@@H](CCC(N)=O)C(=O)N[C@@H](CCC(N)=O)C(=O)N[C@@H](Cc1c[nH]cn1)C(=O)N[C@@H](CC(C)C)C(=O)N[C@@H](CC(C)C)C(=O)N[C@@H](CCC(N)=O)C(=O)N[C@@H](CC(C)C)C(=O)N[C@H](C(=O)N[C@H](C(=O)N[C@@H](Cc1c[nH]c2ccccc12)C(=O)NCC(=O)N[C@H](C(=O)N[C@@H](CCCCN)C(=O)N[C@@H](CCC(N)=O)C(=O)N[C@@H](CC(C)C)C(=O)N[C@@H](CCC(N)=O)C(=O)N[C@@H](C)C(=O)N[C@@H](CCCNC(=N)N)C(=O)N[C@H](C(=O)N[C@@H](CC(C)C)C(=O)N[C@@H](C)C(=O)N[C@H](C(=O)N[C@@H](CCC(=O)O)C(=O)N[C@@H](CCCNC(=N)N)C(=O)N[C@@H](Cc1ccc(O)cc1)C(=O)O)C(C)C)[C@@H](C)CC)[C@@H](C)CC)C(C)C)[C@@H](C)O [N28] (H-IEAQQHLLQLTVWGIKQLQARILAVERY-OH; N-terminus and C-terminus assumed) | could not form a complex with C34 | > 3000 |  |  |  |  |  |  |  |  |  |  |  |  |  |  |  |  | 
2 | IEAQQHLLQLTVWGIKQLQARILAVERYGYIPEAPRDGQAYVRKDGEWVLLSTFL [N28Fd] |  |  | 30.9 | > 138 | 21 | 39 | 9.8 | 1.27 | 26.95 ± 0.02 | 30.6 ± 6.07 | 29 ± 0.82 | 46.4 ± 4.49 | 84 | 97% | SDS-resistant but heat-sensitive trimer; also recorded: more stable than N36Fd under SDS conditions |  |  |  | 
3 | enfuvirtide |  |  |  |  |  |  |  |  | 30 | 374 | 2300 | 1390 |  | completely lost its anti-HIV-1 activity |  | 3.4 | 1.75 | 17 | low nanomolar level
